Data on one compound can be found in patent publication US8802702B2, “Compounds for reducing drug resistance and uses thereof” (The General Hospital Corporation, priority 2009, dated 2014).

One data set deals with OVCAR8TR cells. The data set is described as follows: Reversal of drug resistance, cytotoxicity (MTT) assay in OVCAR8TR. It is filed as cell-based, human. Particulars: Paclitaxel. As to the method: FIGS. 1 (a-b) are graphs that depict the effects of NSC23925 on drug sensitivity in ovarian cancer cells; 1(a) depicts the effects of NSC23925 on sensitive (SKOV-3) and resistant (SKOV-3TR) cells; 1(b) depicts the effects of NSC23925 on sensitive (OVCAR8) and resistant (OVCAR8TR) cells. Cells were treated with the paclitaxel and NSC23925 in RPMI1640 complete media at the indicated concentrations. The relative sensitivity of each line to paclitaxel was determined by MTT assay, as described below in the Examples section, 6 days post treatment. A: Reversal of paclitaxel resistance by NSC23925 in SKOV-3TR cells. B: Reversal of paclitaxel resistance by NSC23925 in OVCAR8TR cells.
Drug cytotoxicity was assessed in vitro using the MTT assay. SKOV-3 and SKOV-3TR cells were used herein. Briefly, 2×10^3 cells per well were plated in 96-well plates in culture medium (RPMI 1640 supplemented with 10% fetal bovine serum and penicillin/streptomycin) containing increasing concentrations of drug. After 7 days of culture, 10 μl MTT (5 mg/ml in PBS, obtained from Sigma) were added to each well and the plates were incubated for 4 h. The resulting formazan product was dissolved with acid-isopropanol and the absorbance at a wavelength of 490 nm (A490) was read on a SPECTRAmax® Microplate Spectrophotometer (Molecular Devices, Sunnyvale, Calif.). The absorbance values were normalized by assigning the value of the control line in the medium without drug to 1.0 and the value of the no cell control to 0. Experiments were performed in triplicate.

In data set [1] the target is T1, Pgp1 efflux in SKOV-3TR and OVCAR8TR cells (Homo sapiens, UniProt P08183).
T1 construct: endogenous in cells; host or cells: SKOV-3TR and OVCAR8TR (paclitaxel-selected resistant lines, not transfected)
The data set is described as follows: Calcein AM drug efflux assay (VYBRANT kit) in resistant cells. It is filed as cell-based. As to the method:
Calcein-AM assay was optimized and performed using the VYBRANT™ multi-drug resistance assay kit (Invitrogen/Molecular Probes) and SKOV-3TR cells. Cells were seeded at 50,000 cells/well (100 μl of culture medium) in a 96-well plate and incubated for 24 h. […] The cell fluorescence images were acquired by a fluorescence microscope (A, C) and quantities of fluorescence were measured in a SPECTRAmax Microplate Spectrofluorometer (B, D).
The VYBRANT™ multi-drug resistance assay kit (Invitrogen/Molecular Probes) was used to measure drug efflux properties of different resistant cell lines. This assay utilizes the fluorogenic dye calcein acetoxymethyl ester (calcein AM) as a substrate for efflux activity of Pgp1 or other membrane pump ABC proteins. Calcein AM is taken up by cells and hydrolyzed by cytoplasmic esterases to fluorescent calcein. Calcein AM is well retained in the cytosol. However, multi-drug resistant cells expressing high levels of Pgp1 rapidly extrude non-fluorescent calcein AM from the plasma membrane, reducing accumulation of fluorescent calcein in the cytosol. Drug sensitive and resistant cells (3×10^5) were cultured in 96-well plate for 24 hours and then incubated in 0.25 μM calcein AM in 150 μl total volume. After 30 minutes, the cells in plate were washed and centrifuged twice with 200 μl cold RPMI1640 culture medium, and cell fluorescence was measured at a […] on a SPECTRAMAX™ Microplate Spectrofluorometer (Molecular Devices).

For data set [2], the system named is Pgp1 substrate retention in SKOV-3TR cells. In words: Fluorescence microscopy of Pgp substrate accumulation. It is filed as cell-based, human. As to the method:
FIG. 8 depicts the increase in Pgp1 substrate accumulation in SKOV-3TR by NSC23925. Images of SKOV-3TR cells incubated with various fluorescent substrates of Pgp1 in the presence (bottom panel) and absence (top panel) of NSC23925. For visualization of effects of NSC23925 on the intracellular retention of rhodamine 123, mitoxantrone, Dioc2, doxorobucin, and calcein AM, 10,000 resistant cells were seeded on to Lab-Tek 8-well chamber slides on the day prior to the assay. SKOV-3TR cells were then incubated with either 1 μM rhodamine 123, 10 μM mitoxantrone, 0.1 μM Dioc2, 10 μM doxorubicin or 0.25 μM calcein AM either alone or in the presence of NSC23925 in RPMI 1640 media for one hour at 37° C. Image were acquired a Nikon Eclipse Ti-U fluorescence microscope (Nikon Corp.) equipped with a SPOT RT digital camera (Diagnostic Instruments, Inc., Sterling Heights, Mich.).
For visualization of the effects of NSC23925 on the intracellular retention of calcein AM, doxorubicin, and mitoxantrone, 10,000 resistant cells were seeded on to Lab-Tek 8-well chamber slides on the day prior to the assay. […] Images were acquired by Nikon Eclipse Ti-U fluorescence microscope (Nikon Corp.) equipped with a SPOT RT digital camera (Diagnostic Instruments, Inc., Sterling Heights, Mich.).

T1 sequence (P08183 whole entry): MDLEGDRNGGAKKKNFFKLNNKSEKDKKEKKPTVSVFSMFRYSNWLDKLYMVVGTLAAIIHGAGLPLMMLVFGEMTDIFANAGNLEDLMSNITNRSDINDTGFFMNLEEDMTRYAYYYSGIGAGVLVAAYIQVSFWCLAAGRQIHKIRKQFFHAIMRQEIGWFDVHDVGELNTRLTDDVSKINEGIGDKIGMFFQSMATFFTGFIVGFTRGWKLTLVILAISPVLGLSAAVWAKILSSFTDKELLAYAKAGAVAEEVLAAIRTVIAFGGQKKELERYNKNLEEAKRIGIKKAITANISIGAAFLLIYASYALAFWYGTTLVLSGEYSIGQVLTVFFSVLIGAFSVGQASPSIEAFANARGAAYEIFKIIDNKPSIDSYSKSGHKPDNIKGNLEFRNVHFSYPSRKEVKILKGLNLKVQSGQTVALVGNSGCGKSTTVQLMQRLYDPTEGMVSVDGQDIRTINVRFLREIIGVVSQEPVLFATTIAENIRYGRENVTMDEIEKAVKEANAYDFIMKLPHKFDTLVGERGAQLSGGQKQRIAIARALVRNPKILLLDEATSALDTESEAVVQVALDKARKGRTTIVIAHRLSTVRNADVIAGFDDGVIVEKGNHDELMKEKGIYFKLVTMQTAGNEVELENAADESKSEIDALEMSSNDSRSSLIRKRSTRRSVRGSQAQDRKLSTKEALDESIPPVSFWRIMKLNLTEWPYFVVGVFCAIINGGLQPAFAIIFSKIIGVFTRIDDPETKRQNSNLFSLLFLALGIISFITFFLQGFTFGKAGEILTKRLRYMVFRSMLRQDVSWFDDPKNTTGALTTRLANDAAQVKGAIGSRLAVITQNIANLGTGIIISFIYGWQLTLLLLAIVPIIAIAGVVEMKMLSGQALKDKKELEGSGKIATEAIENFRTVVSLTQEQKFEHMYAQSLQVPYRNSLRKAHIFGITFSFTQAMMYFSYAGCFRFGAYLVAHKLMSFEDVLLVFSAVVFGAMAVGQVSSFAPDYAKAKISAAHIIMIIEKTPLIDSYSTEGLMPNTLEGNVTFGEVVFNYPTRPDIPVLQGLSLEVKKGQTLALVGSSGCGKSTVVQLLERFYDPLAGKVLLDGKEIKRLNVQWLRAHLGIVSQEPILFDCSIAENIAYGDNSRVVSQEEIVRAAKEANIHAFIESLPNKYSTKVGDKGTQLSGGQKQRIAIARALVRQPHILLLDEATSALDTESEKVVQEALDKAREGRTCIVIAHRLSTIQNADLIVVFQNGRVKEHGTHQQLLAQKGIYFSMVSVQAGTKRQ

One may read the IC50 as the point on the concentration scale where inhibition reaches its midpoint. With `COc1ccc(-c2cc(C(O)C3CCCCN3)c3ccccc3n2)cc1` (centres unmarked) [NSC23925, (2-(4-methoxyphenyl)quinolin-4-yl)(piperidin-2-yl)methanol], the IC50 in the data set with OVCAR8TR cells (Homo sapiens, add NSC23925 0.1 μM, read-out: OVCAR8TR IC50 of Paclitaxel) stood at 127 ± 27 nM. Moreover, the “fold-reversal of drug resistance, OVCAR8TR” value with OVCAR8TR cells (add NSC23925 0.5 μM) is recorded as “(4.7) fold”. Further, the “Potency compared with verapamil and CsA (calcein AM accumulation)” value in data set [1] is given as “significantly greater”. For the same compound, in data set [1] (SKOV-3TR and OVCAR8TR), the “Half-maximal reversal of calcein AM accumulation deficit” value was 100 nM, the “Lowest concentration with prominent effect on accumulation of calcein AM” value is listed as 1 nM and the “Near maximal reversal of calcein AM accumulation deficit” value is listed as 500 nM. For the same compound, in data set [2] (1 μM NSC23925, one hour at 37° C.), the “Fluorescence of SKOV-3TR cells incubated with fluorescent Pgp substrates” value was “highly fluorescent”. The “Efflux of Pgp1 substrates Rhodamine 123, mitoxantrone, dioc 2 and doxorubicin from SKOV-3TR” value in data set [2] (fluorescence) is “inhibited the efflux”.
